Reference: US6603046B1, “Bis-aromatic a,β-unsaturated ketones” (Lica Pharmaceuticals A/S, priority 1992, dated 2003)
Values after ≈ are worked out from the molar mass of the structure shown. Like-named read-outs stand apart in the source and are kept apart here.

Experiments:
[1] = Rate of the reaction between N-acetyl-L-cysteine and chalcones, HPLC; format: physicochemical; conditions: methanol-water-potassium phosphate buffer pH 7.5, 30° C.; first order
Source text: The decline of the chalcone concentration was followed by HPLC. The following experimental setups were used: 1. […] 2. […] This system was used i the case of 4′-methoxychalcone. The rate of decline of the chalcone concentration was followed by HPLC. The rate constant was estimated using Grafit and assuming that the reaction followed first order kinetic; i.e.: [c]=[c0]exp(−kt) where [c] is the concentration of the chalcone in question at time t, [c0] is the concentration of the chalcone in question at time zero, k is the rate constant, and t the time.

[2] = system: L. major promastigotes; experiment: In vitro growth of L. major promastigotes, 3H-thymidine uptake (Example 4); format: cell-based, Leishmania major; conditions: in vitro L. major growth test
[3] = system: L. major promastigotes; experiment: L. major promastigotes from 4-days cultures, 3H-thymidine uptake (Examples 5, 14); format: cell-based, Leishmania major; conditions: Leishmania major, Table 14.1, read-out: percentage inhibition of promastigotes (upper figure)
Summary of the method: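 Promastigotes harvested on day 4 of culture were exposed to compound, then pulsed with 100 μC 3H-thymidine for a further 18 h. Cells were collected on filter paper, washed, and incorporated radioactivity counted by scintillation.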

[4] = system: human lymphocytes; experiment: Lymphocyte Proliferation Assay, 3H-thymidine incorporation (Example 13); conditions: Homo sapiens, Lymphocyte, read-out: inhibition of lymphocytes (lower figure)
[5] = system: chloroquine-sensitive P. falciparum 3D7A strain; experiment: In vitro growth of P. falciparum 3D7A, 3H-hypoxanthine uptake (Example 15); format: cell-based, Plasmodium falciparum
[6] = system: P. falciparum; experiment: P. falciparum growth in vitro (Table 14.1, strain not stated); format: cell-based; conditions: Plasmodium falciparum, read-out: inhibition of malaria parasites (middle figure) (converted)
Method: The P. falciparum experimental setup was as described in Example 15.
Testing of the effect of drugs and serum on the in vitro growth of the parasites. The experiments in which compounds were tested for their ability to inhibit parasite growth were performed by a modification of the method originally described by Jensen et al. (1982). Fifty μl of parasitized erythrocytes (parasitemia approximately 1%) in a concentration of 5×10^8/ml and 50 μl of RPMI medium containing different concentrations of the test compound was added to each well of a 96 well flat-bottomed microtiter plate (Nunc). The cultures were then incubated for 48 hours, 24 hours before termination of the culture adding 20 μl of 3-H-hypoxanthine (40 uCi/ml) (New England Nuclear, Boston, Mass., USA) was added to each well. The cultures were then harvested onto glass fiber filters using a Skatron cell harvester (Skatron, Lierbyen, Norway), and the incorporation of 3-H-hypoxanthine into the DNA of dividing parasites was determined by liquid scintillation spectrometry.

[7] = system: chloroquine resistant P. falciparum DD2 strain; experiment: In vitro growth of P. falciparum DD2, 3H-hypoxanthine uptake (Example 15); format: cell-based, Plasmodium falciparum; conditions: Plasmodium falciparum, DD2, read-out: concentration in which parasite growth was retarded by 50%
[8] = system: P. yoelii strain YM; experiment: P. yoelii strain YM infection in mice, parasitemia and mortality (Example 16); format: in vivo, BALB/c mice
[9] = D + 10, i.p. 0.5 mg/kg/day once daily D0-D + 3
[10] = D + 12, i.p. 0.5 mg/kg/day once daily D0-D + 3
[11] = D + 14, i.p. 0.5 mg/kg/day once daily D0-D + 3
[12] = D + 16, i.p. 0.5 mg/kg/day once daily D0-D + 3
[13] = D + 16, i.p. 2.5 mg/kg/day once daily D0-D + 3
[14] = D + 18, i.p. 0.5 mg/kg/day once daily D0-D + 3
[15] = D + 18, i.p. 2.5 mg/kg/day once daily D0-D + 3
[16] = D + 20, i.p. 0.5 mg/kg/day once daily D0-D + 3
[17] = D + 20, i.p. 2.5 mg/kg/day once daily D0-D + 3
[18] = D + 20, i.p. 5 mg/kg/day once daily D0-D + 3

With `C=CCOc1ccc(C(=O)CCc2ccc(OC)cc2OC)cc1` the “Estimated rate constant k” value [1] was 0.0011 min⁻¹.
In the case of `C=CC(C)(OC)c1cc(CCC(=O)c2ccc(O)cc2)c(OC)cc1O` (stereo not shown), the “Estimated rate constant k” value [1] is reported as 0.00058 min⁻¹.
For `CC(C)=CCc1cc(/C=C/C(=O)c2ccc(O)c(CC=C(C)C)c2O)ccc1O` [4,2′,4′-trihydroxy-3,3′-di-(3-methylbut-2-enyl)chalcone], the “antiparasitic effect in bioassay-guided fractionation” value [2] was “showed major antiparasitic effects”.
With `O=C(/C=C/c1ccccc1)c1ccc(O)cc1` [4′-Hydroxychalcone, 4′-hydroxychalcone] the inhibition at 0.5 µg/mL ([3]; 0.5 μg/ml) was 26.4 ± 6.5%, the inhibition at 1 µg/mL ([3]; 1 μg/ml) was 37.3 ± 13.6% and the inhibition at 5 µg/mL ([3]; 5 μg/ml) was 73.4 ± 15.3%. It also gave an inhibition at 10 µg/mL ([3]; 10 μg/ml) of 90.1 ± 6.5%, an inhibition at 1 µg/mL [4] of 3.6% and an inhibition at 5 µg/mL [4] of 10.2%. For the same compound, the inhibition at 10 µg/mL [4] was 17%, the IC50 ([5]; Plasmodium falciparum; read-out: concentration in which growth was retarded by 50%) was 1 to 5 µg/mL (≈ 4.46 to 22.3 µM) and the “Percentage inhibition of 3H-hypoxanthine uptake (mean ± SEM)” value (“Percentage inhibition … (mean ± SEM)” below) ([5]; title: percentage inhibition of 3H-hypoxanthine uptake; 0.5 μg/ml) was 29.9 ± 10.7%. The “Percentage inhibition … (mean ± SEM)” value ([5]; title: percentage inhibition of 3H-hypoxanthine uptake; 1 μg/ml) was 40.5 ± 11.1%, the “Percentage inhibition … (mean ± SEM)” value ([5]; title: percentage inhibition of 3H-hypoxanthine uptake; 5 μg/ml) was 64.2 ± 8.5% and the “Percentage inhibition … (mean ± SEM)” value ([5]; title: percentage inhibition of 3H-hypoxanthine uptake; 10 μg/ml) was 95.5 ± 1.1%. For the same compound, the inhibition at 0.5 µg/mL ([6]; 0.5 μg/ml) was 29.9%, the inhibition at 1 µg/mL ([6]; 1 μg/ml) was 40.5% and the inhibition at 5 µg/mL ([6]; 5 μg/ml) was 64.3%. It also gave an inhibition at 10 µg/mL ([6]; 10 μg/ml) of 95.6%.
With `CC(C)=CCc1c(O)ccc(C(=O)/C=C/c2cc(O)c3c(c2)C=CC(C)(C)O3)c1O` [(A)] the “antiparasitic effect in bioassay-guided fractionation” value [2] was “Only the latter compound showed major antiparasitic effects”.
In the case of `CCN(CC)CCCC(C)Nc1ccnc2cc(Cl)ccc12` (stereo not shown) [Chloroquine, chloroquine phosphate, reference compound], the IC50 ([5]; Plasmodium falciparum, read-out: concentration in which growth was retarded by 50%) is reported as 38 to 75 µg/mL, the “Percentage inhibition … (mean ± SEM)” value ([5]; title: percentage inhibition of 3H-hypoxanthine uptake; 38 ng/ml) is reported as 34.0 ± 6.1% and the “Percentage inhibition … (mean ± SEM)” value ([5]; title: percentage inhibition of 3H-hypoxanthine uptake; 75 ng/ml) is reported as 80.2 ± 3.7%. The “Percentage inhibition … (mean ± SEM)” value ([5]; title: percentage inhibition of 3H-hypoxanthine uptake; 150 ng/ml) was 97.1 ± 1.0%, the “Percentage inhibition … (mean ± SEM)” value ([5]; title: percentage inhibition of 3H-hypoxanthine uptake; 300 ng/ml) was 98.8 ± 0.3% and the IC50 [7] was 0.075 to 0.15 µg/mL. For the same compound, the “% parasitemia (mean ± SEM)” value ([8]; D + 4, i.p. 0.5 mg/kg/day once daily D0-D + 3) was 0.9 ± 0.5%, the “% parasitemia (mean ± SEM)” value ([8]; D + 4, i.p. 2.5 mg/kg/day once daily D0-D + 3) was 0.2 ± 0.2% and the “% parasitemia (mean ± SEM)” value ([8]; D + 4, i.p. 5 mg/kg/day once daily D0-D + 3) was 0.02 ± 0.04%. For the same compound, the “% parasitemia (mean ± SEM)” value ([8]; D + 6, i.p. 0.5 mg/kg/day once daily D0-D + 3) was 24 ± 8.6%, the “% parasitemia (mean ± SEM)” value ([8]; D + 6, i.p. 2.5 mg/kg/day once daily D0-D + 3) was 2.4 ± 2.2% and the “% parasitemia (mean ± SEM)” value ([8]; D + 6, i.p. 5 mg/kg/day once daily D0-D + 3) was 0%. The “% parasitemia (mean ± SEM)” value ([8]; D + 8, i.p. 0.5 mg/kg/day once daily D0-D + 3) was 57.4 ± 4.2%, the “% parasitemia (mean ± SEM)” value ([8]; D + 8, i.p. 2.5 mg/kg/day once daily D0-D + 3) was 28.3 ± 16.2% and the “% parasitemia (mean ± SEM)” value ([8]; D + 8, i.p. 5 mg/kg/day once daily D0-D + 3) was 0.1 ± 0.17%. The “% parasitemia (mean ± SEM)” value [8, 9] was 66.3 ± 6.6%, the “mortality (no. of dead mice/total no. of tested mice)” value [8, 9] was “(2/5)” and the “% parasitemia (mean ± SEM)” value ([8]; D + 10, i.p. 2.5 mg/kg/day once daily D0-D + 3) was 33.7 ± 19.8%. The “% parasitemia (mean ± SEM)” value ([8]; D + 10, i.p. 5 mg/kg/day once daily D0-D + 3) was 2.8 ± 2.7%, the “% parasitemia (mean ± SEM)” value [8, 10] was 49.7 ± 17.6% and the “mortality (no. of dead mice/total no. of tested mice)” value [8, 10] was “(2/5)”. The “% parasitemia (mean ± SEM)” value ([8]; D + 12, i.p. 2.5 mg/kg/day once daily D0-D + 3) was 40.2 ± 21%, the “% parasitemia (mean ± SEM)” value ([8]; D + 12, i.p. 5 mg/kg/day once daily D0-D + 3) was 13 ± 4.4% and the “% parasitemia (mean ± SEM)” value [8, 11] was 35.3 ± 4.7%. The “mortality (no. of dead mice/total no. of tested mice)” value [8, 11] was “(2/5)”, the “% parasitemia (mean ± SEM)” value ([8]; D + 14, i.p. 2.5 mg/kg/day once daily D0-D + 3) was 37.4 ± 19.8% and the “% parasitemia (mean ± SEM)” value ([8]; D + 14, i.p. 5 mg/kg/day once daily D0-D + 3) was 22.4 ± 6.1%. The “% parasitemia (mean ± SEM)” value [8, 12] was 18.5 ± 19.1%, the “mortality (no. of dead mice/total no. of tested mice)” value [8, 12] was “(3/5)” and the “% parasitemia (mean ± SEM)” value [8, 13] was 4.7 ± 4.6%. For the same compound, the “mortality (no. of dead mice/total no. of tested mice)” value [8, 13] was “(2/5)”, the “% parasitemia (mean ± SEM)” value ([8]; D + 16, i.p. 5 mg/kg/day once daily D0-D + 3) was 62.2 ± 24.5% and the “% parasitemia (mean ± SEM)” value [8, 14] was 9%. The “mortality (no. of dead mice/total no. of tested mice)” value [8, 14] was 4/5, the “% parasitemia (mean ± SEM)” value [8, 15] was 0% and the “mortality (no. of dead mice/total no. of tested mice)” value [8, 15] was 2/5. For the same compound, the “% parasitemia (mean ± SEM)” value ([8]; D + 18, i.p. 5 mg/kg/day once daily D0-D + 3) was 75.2 ± 3.3%, the “% parasitemia (mean ± SEM)” value [8, 16] was 0% and the “mortality (no. of dead mice/total no. of tested mice)” value [8, 16] was 4/5. The “% parasitemia (mean ± SEM)” value [8, 17] was 0%, the “mortality (no. of dead mice/total no. of tested mice)” value [8, 17] was 2/5 and the “% parasitemia (mean ± SEM)” value [8, 18] was 50 ± 16.4%. The “mortality (no. of dead mice/total no. of tested mice)” value [8, 18] was “(1/5)”.
For `O=C(/C=C/c1ccccc1)c1ccccc1` [drawing 102, chalcone, reference compound], the “Estimated rate constant k” value [1] was 0.034 min⁻¹.
With `COc1ccc(C(=O)/C=C/c2ccccc2)cc1` [drawing 103, 4′-methoxychalcone] the “Estimated rate constant k” value [1] was 0.016 min⁻¹.
For `COc1ccc(/C=C/C(=O)c2ccccc2)c(OC)c1` [drawing 104], the “Estimated rate constant k” value [1] was 0.0033 min⁻¹.
With `O=C(/C=C/c1ccc(O)cc1)c1ccc(O)cc1` [drawing 105] the “Estimated rate constant k” value [1] was 0.0020 min⁻¹.
